In US20080113956A1, “Substituted Porphyrins” (priority 1997, published 2008):

B1: catalase: enzymatic antioxidant (protein, UniProt P04040 2-527, looked up)
Catalase: ADSRDPASDQMQHWKEQRAAQKADVLTTGAGNPVGDKLNVITVGPRGPLLVQDVVFTDEMAHFDRERIPERVVHAKGAGAFGYFEVTHDITKYSKAKVFEHIGKKTPIAVRFSTVAGESGSADTVRDPRGFAVKFYTEDGNWDLVGNNTPIFFIRDPILFPSFIHSQKRNPQTHLKDPDMVWDFWSLRPESLHQVSFLFSDRGIPDGHRHMNGYGSHTFKLVNANGEAVYCKFHYKTDQGIKNLSVEDAARLSQEDPDYGIRDLFNAIATGKYPSWTFYIQVMTFNQAETFPFNPFDLTKVWPHKDYPLIPVGKLVLNRNPVNYFAEVEQIAFDPSNMPPGIEASPDKMLQGRLFAYPDTHRHRLGPNYLHIPVNCPYRARVANYQRDGPMCMQDNQGGAPNYYPNSFGAPEQQPSALEHSIQYSGEVRRFNTANDDNVTQVRAFYVNVLNEEQRKRLCENIAGHLKDAQIFIQKKAVKNFTEVHPDYGSHIQALLDKYNAEKPKNAIHTFVQSGSHLAAREKANL

Assays:
[1] = Electrochemistry: metal-centered redox potential; type: physicochemical; settings: metal centered, vs NHE, pH 7.8 if not otherwise specified
Experimental: Electrochemistry. The electrochemical characterization was performed as described previously on a Voltammetric Analyzer Model 600 (CH instrument) using a glassy carbon electrode (Ag/AgCl reference and Pt auxiliary electrodes), at 0.5 mM porphyrin, pH 7.8 (0.05 M phosphate buffer), 0.1 M NaCl. The potentials were standardized against potassium ferricyanide/potassium ferrocyanide couple (Batinic-Haberle et al, Arch. Biochem. Biophys. 343:225 (1997); Kolthof et al, J. Phys. Chem. 39:945 (1974)).
Electrochemistry. The metal-centered redox behavior of all metalloporphyrin products was reversible. The half-wave potentials (E^O1/2) were calculated as the average of the cathodic and anodic peaks and are given in mV vs NHE (Table 5). The average shift per chlorine is +55 mV (Table 5), which is in agreement with the values previously reported for H2TPP derivatives (between −50 and +70 mV) (Sen et al, Chem. Soc. Faraday Trans. 93:4281 (1997); Autret et al. J. Chem. Soc. Dalton Trans. 2793 (1996); Hariprasad et al, J. Chem. Soc. Dalton Trans. 3429 (1996); Tagliatesta et al, Inorg. Chem. 35:5570 (1996); Ghosh, J. Am. Chem. Soc. 117:4691 (1995); Takeuchi et al, J. Am. Chem. Soc. 116:9730 (1994); Binstead et al, Inorg. Chem. 30:1259 (1991); Giraudeau et al, J. Am. Chem. Soc. 101:3857 (1979)). This shift appears to be higher (˜+65 mV) between 0 and 1, and between 2 and 3 chlorines (Table 5). […] The manganese redox state of MnCl4TE-2-PyP^5 (E^O1/2=+448 mV) and MnOBTMPyP^4+ (E^O1.2=+480 mV) is 3+ and 2+, respectively. This difference may be explained by their difference in terms of redox potential (˜30 mV) but also by structural considerations, for instance an increased distortion of the porphyrin ring in the case of MnOBTMPyP^4+. (Batinic-Haberle et al, Arch. Biochem. Biophys. 343:225 (1997); Ochsenbein et al, Angew. Chem. Int. Ed. Engl. 33:348 (1994)).

[2] = cited from earlier work; for kcat of comparison compounds: literature comparators
[3] = SOD activity in U/mg (reduction of cytochrome c or photoreduction of NBT); type: biochemical; settings: unit = amount that inhibits one half the reduction of cytochrome c or photoreduction of NBT
rat brain homogenates = experiment: Iron/ascorbate mediated lipid peroxidation of rat brain homogenates (TBARS); type: biochemical; settings: for IC50: rat brain homogenate, 30 minutes incubation with iron and ascorbate, TBARS
Experimental: Frozen adult Sprague-Dawley rat brains (Pel-Freez, Rogers, Ark.) were homogenized with a polytron (Turrax T25, Germany) in 5 volumes of ice cold 50 mM potassium phosphate at pH 7.4. Homogenate protein concentration was determined with the Coomassie Plus protein assay (Pierce, Rockford, Ill.) using bovine serum albumin as a standard. The homogenate volume was adjusted with buffer to give a final protein concentration of 10 mg/ml and frozen as aliquots at […].
Rat brain homogenates (2 mg protein) were incubated with varying concentrations of antioxidant at 37° C. for 15 minutes. Oxidation of the rat brain homogenate was initiated by the addition of 0.1 ml of a freshly prepared anaerobic stock solution containing iron(II) chloride (0.25 mM) and ascorbate (1 mM) as previously reported (Braughler et al, J. Biol. Chem. 262:10438 (1987)). Samples (final volume 1 ml) were placed in a shaking water bath at 37° C. for 30 minutes. The reactions were stopped by the addition of 0.1 ml of a stock butylated hydroxytoluene (60 mM) solution in ethanol.
The concentration of thiobarbituric acid reactive species (TBARS) in rat brain homogenates was used as a index of lipid peroxidation (Bernhem et al, J. Biol. Chem. 174:257 (1948); Witz et al, J. Free Rad. Biol. Med. 2:33 (1986); Kikugawa et al, Anal. Biochem. 202:249 (1992); Jentzsch et al, Free Rad. Biol. Med. 20P251 (1996)). Malondialdehyde standards were obtained by adding 8.2 μl of 1,1,3,3-tetramethoxypropane in 10 ml of 0.01 M HCl and mixing for 10 minutes at room temperature. This stock was further diluted in water to give standards that ranged from 0.25 to 25 μM. Samples or standards (200 μl) were acidified with 200 μl of 0.2 M phosphoric acid in 1.5 ml locking microfuge tubes. The color reaction was initiated by the addition of 25 μl of a 0.11M thiobarbituric acid solution and samples were placed in a 90° C. heating block for 45 minutes. TBARS were extracted with 0.5 ml of n-butanol by vortexing samples for 3 minute and chilling on ice for 1 minute. The samples were then centrifuged at 12,000×g for 3 minutes, 150 μl aliquots of the n-butanol phase were placed in each well of a 96-well plate and read at 535 nm in a Thermomax platereader (Molecular Devices, Sunnyvale, Calif.) at 25° C. Sample absorbencies were converted to MDA equivalencies (μM) by extrapolation from the MDA standard curve. None of the antioxidants at concentrations employed in these studies affected the reaction of MDA standards with thiobarbituric acid and reactions without TBA were used as subtraction blanks.
Data were presented as their means ±SE. The inhibitory concentration of antioxidants that decreased the degree of lipid peroxidation by 50% (IC50) and respective 95% confidence intervals (CI) were determined by fitting a sigmoidal curve with variable slope to the data (GraphPad Prizm, San Diego, Calif.).

[4] = vs NHE; literature comparators; cited from earlier work

Molecule | Redox Potential (E1/2) [1] | kcat of comparison compounds [2] | kcat per active site ([2]; per active site) | SOD [3] | IC50 (rat brain homogenates) [µM] | E°1/2 half-wave potential of comparison compounds [4] | inhibition of iron/ascorbate-initiated lipid peroxidation (rat brain homogenates; up to concentrations of 1 mg/ml)
CuZnSOD: dimeric copper- and zinc-containing superoxide dismutase enzyme; bovine in Example VIII | +0.35 V | 200 10^7 M^−1 s^−1 | 10^9 M^−1s^−1 | 5,100 U/mg | 15 | +260 mV | –
MnTBAP | −0.19 V | – | – | 179 U/mg | 29 | – | –
C[n+]1ccc(-c2c3nc(c(-c4cc[n+](C)cc4)c4[n-]c(c(Br)c4Br)c(-c4cc[n+](C)cc4)c4nc(c(-c5cc[n+](C)cc5)c5[n-]c2c(Br)c5Br)C(Br)=C4Br)C(Br)=C3Br)cc1.[Mn+3] [MnOBTM-4-PyP, Manganese β-octabromo-meso-tetrakis-(N-methylpyridinium-4-yl)porphyrin] | +0.48 V | 22 10^7 M^−1 s^−1 | – | 18,460 U/mg | 1.3 | +480 mV | –
O=C(O)c1ccc(-c2c3nc(c(-c4ccc(C(=O)O)cc4)c4ccc([nH]4)c(-c4ccc(C(=O)O)cc4)c4nc(c(-c5ccc(C(=O)O)cc5)c5ccc2[nH]5)C=C4)C=C3)cc1.[Fe+3] [FeTBAP, Ferric 5,10,15,20-tetrakis(4-benzoic acid) porphyrin] | +0.01 V | – | – | 24 U/mg | 212 | – | –
C[n+]1ccc(-c2c3nc(c(-c4cc[n+](C)cc4)c4ccc([nH]4)c(-c4cc[n+](C)cc4)c4nc(c(-c5cc[n+](C)cc5)c5ccc2[nH]5)C=C4)C=C3)cc1.[Zn+2] [ZnTM-4-PyP] | – | – | – | trace | 241 | – | –
C[n+]1ccccc1-c1c2nc(c(-c3cccc[n+]3C)c3ccc([nH]3)c(-c3cccc[n+]3C)c3nc(c(-c4cccc[n+]4C)c4ccc1[nH]4)C=C3)C=C2.[Zn+2] [ZnTM-2-PyP] | – | – | – | trace | 591 | – | –
Cc1c(C)c2c(c(C)c1O)CCC(C)(C(=O)O)O2 (centres unmarked) [Trolox] | – | – | – | – | 204 | – | –
B1 | – | – | – | – | – | – | did not inhibit
